This passage reports Kd results from patent publication US20050192314A1, “Urea derivatives as C-kit modulators” (Ambit Biosciences Corporation, priority 2003, published 2005).

Structures are written as SMILES. Bounds are passed on as bounds.

The target of the experiment is T1, KIT(DKIN) (Homo sapiens, UniProt P10721).
T1 construct: KIT(DKIN); made in house
T1 sequence (P10721 589-937 limits assumed): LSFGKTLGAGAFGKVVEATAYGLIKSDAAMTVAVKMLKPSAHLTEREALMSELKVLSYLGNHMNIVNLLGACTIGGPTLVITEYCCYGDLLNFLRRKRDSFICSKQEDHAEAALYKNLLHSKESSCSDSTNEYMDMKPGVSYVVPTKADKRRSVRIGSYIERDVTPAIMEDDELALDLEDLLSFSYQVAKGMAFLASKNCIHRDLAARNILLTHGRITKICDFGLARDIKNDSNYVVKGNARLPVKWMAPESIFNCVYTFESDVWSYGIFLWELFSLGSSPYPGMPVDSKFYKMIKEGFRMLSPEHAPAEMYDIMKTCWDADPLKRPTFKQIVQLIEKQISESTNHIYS
The experiment can be described thus: Binding constant (Kd) measurement, phage-displayed kinase competition binding assay: KIT(DKIN). The text has this: The term “ND” represents non-determined values.
Take `CC(C)(C)c1cc(NC(=O)Nc2ccc(F)cc2)no1` [Compound A47]: the Kd (commonly the free concentration of one partner at which half of the binding sites on the other are occupied at equilibrium, for simple one-to-one binding) is 1 to 10 µM. For the molecule `CC(C)(C)c1cc(NC(=O)Nc2ccc(OCCN3CCC(O)CC3)cc2)no1` [Compound G48], the Kd was > 10 µM. On to `CCOc1ccc(NC(=O)Nc2cc(C(C)(C)C)on2)cc1` [Compound G20], for which the Kd is < 0.1 µM. In the case of `Cn1c(SCC(=O)Nc2ccc(NC(=O)Nc3cc(C(C)(C)C)on3)cc2)nnc1-c1cccn(Cc2ccccc2)c1=O` [Compound Z47], the Kd was in the range of 0.1 to 1 µM. The figure for `Cc1cc(C)n(C(=O)Nc2ccc(Cl)cc2)n1` [Compound Z52] is > 10 µM; for `CC(C)(C)c1cc(NC(=O)Nc2ccc(NC(=O)c3cc(Cl)nc(Cl)c3)cc2)no1` [Compound N132] it is 1 to 10 µM; for `CC(C)(C)c1cc(NC(=O)Nc2ccc(NC(=O)c3c(F)cccc3F)cc2)no1` [Compound N37] it is 1 to 10 µM. For the molecule `CC(C)(C)c1cc(NC(=O)Nc2ccc(NC(=O)Cc3csc4ccccc34)cc2)no1` [Compound N107], the Kd was 1 to 10 µM. The molecule `CC(C)(CO)c1cc(NC(=O)Nc2ccc(Cl)cc2)on1` [Compound A22] showed a Kd of 1 to 10 µM. `CC1CN(CCOc2ccc(NC(=O)Nc3cc(C(C)(C)C)on3)cc2)CC(C)O1` (stereo not shown) [Compound G42]: the Kd was 1 to 10 µM. `CC(C)(C)c1cc(NC(=O)Nc2ccc(Oc3ccccc3)cc2)no1` [Compound A24]: the Kd is 0.1 to 1 µM. Regarding `NC(=O)c1c(NC(=O)Nc2ccc(Cl)c(Cl)c2)sc2c1CCCC2` [Compound Z56], the Kd is > 10 µM. As for `CC(C)(C)c1cc(NC(=O)Nc2ccc(NC(=O)c3ccc4cccnc4n3)cc2)no1` [Compound N144], the figure is 0.1 to 1 µM; as for `CC(C)(C)c1cc(NC(=O)Nc2ccc(OCC3CCC3)cc2)no1` [Compound G39], < 0.1 µM; as for `CC(C)(C)c1cc(NC(=O)Nc2ccc(C(=O)NCc3ccccc3)cc2)no1` [Compound N89], 0.1 to 1 µM. The figure for `CC(C)(C)c1cc(NC(=O)Nc2ccc(NC(=O)c3cc(Cl)cn(Cc4ccccc4)c3=O)cc2)no1` [Compound N112] is 1 to 10 µM; for `CSc1ccc(NC(=O)Nc2cc(C(C)(C)C)on2)cc1` [Compound A37] it is 0.1 to 1 µM; for `O=C(Nc1ccc(Cl)cc1)Nc1ccc(-n2nc(Br)c(Br)c2Br)cc1` [Compound Z49] it is 0.1 to 1 µM.

Molecule `CC(C)(C)c1cc(NC(=O)Nc2ccc(CCc3ccccc3)cc2)no1` [Compound A15] came in with a Kd of 0.1 to 1 µM. As for `Cn1nc(C2CC2)cc1NC(=O)Nc1ccc(OCc2ccccc2)cc1` [Compound H7], the figure is > 10 µM; as for `Cc1noc(-c2ccc(NC(=O)Nc3cc(C(C)(C)C)on3)cc2)n1` [Compound P9], < 0.1 µM.

In turn, `CC(C)(C)c1cc(NC(=O)Nc2ccccc2)no1` [Compound A2] yielded a Kd of 0.1 to 1 µM. The figure for `CC(C)(C)c1cc(NC(=O)Nc2ccc(OCCN3CCOCC3)c3ccccc23)no1` [Compound K1] is 1 to 10 µM; for `Cc1ccc(-n2nc(C(C)(C)C)cc2NC(=O)Nc2cc(C(C)(C)C)on2)cc1` [Compound H11] it is > 10 µM; for `COc1cccc(-c2ccc(C(=O)Nc3ccc(NC(=O)Nc4cc(C(C)(C)C)on4)cc3)o2)c1` [Compound N105] it is 0.1 to 1 µM.

`C[C@H](NC(=O)c1ccc(NC(=O)Nc2cc(C(C)(C)C)on2)cc1)c1ccccc1` [Compound N88] came in with a Kd of 0.1 to 1 µM. `CC(C)(C)c1cc(NC(=O)Nc2ccc(OCCN3CCNCC3)cc2)no1` [Compound G52]: the Kd is > 10 µM.

As for `CC1CCCN(CCOc2ccc(NC(=O)Nc3cc(C(C)(C)C)on3)cc2)C1` (stereo not shown) [Compound G44], the Kd is > 10 µM. Take `Cn1cc(C(=O)Nc2ccc(NC(=O)Nc3cc(C(C)(C)C)on3)cc2)c2ccccc21` [Compound N119]: the Kd lay in the range of 0.1 to 1 µM. With `CC(C)(C)c1cc(NC(=O)Nc2ccc(C(=O)Nc3ccc(Cl)cc3)cc2)no1` [Compound N156], the equilibrium dissociation constant (Kd) was 1 to 10 µM. Consider `O=C(Nc1ccc(Cl)cc1)Nc1cc(C(F)(F)F)cc(Cl)n1` [Compound Z76], for which the Kd was in the range of 0.1 to 1 µM. The molecule `Cn1nc(C(C)(C)C)cc1C(=O)Nc1ccc(NC(=O)Nc2cc(C(C)(C)C)on2)cc1` [Compound N10] came in with a Kd of 0.1 to 1 µM. In the case of `COc1ccc(NC(=O)Nc2cc(C(F)(F)F)cc(Cl)n2)cc1` [Compound Z71], the Kd lay in the range of 0.1 to 1 µM. As to `CC(C)(C)c1cc(NC(=O)Nc2ccc(NC(=O)CCc3ccccc3)cc2)no1` [Compound N96], the Kd fell in the range of 0.1 to 1 µM. With `CC(C)(C)c1cc(NC(=O)Nc2ccc(OCc3ccc(-c4ccccc4)cc3)cc2)no1` [Compound G56], the Kd lay within 0.1 to 1 µM. The figure for `CC(C)(C)c1cc(NC(=O)Nc2ccc(OCc3ccc4ccccc4c3)cc2)no1` [Compound G3] is 0.1 to 1 µM. Regarding `C=C/C(=C\C=C\Cl)NC(=O)Nc1ccc(C(=O)OCCOC)cc1` [Compound Z54], the Kd was in the range of 1 to 10 µM. The figure for `CC(C)(C)c1cc(NC(=O)Nc2ccc(OCc3c(F)cccc3F)cc2)no1` [Compound G21] is < 0.1 µM; for `CC(C)(C)c1cc(NC(=O)Nc2ccc(OCC(O)CO)cc2)no1` (stereo not shown) [Compound G28] it is 0.1 to 1 µM. For the molecule `CC(C)(C)c1cc(NC(=O)Nc2ccc(CCc3ccc(N)cc3)cc2)no1` [Compound A3], the Kd is < 0.1 µM. `Cc1ccc(NC(=O)Nc2cc(C(F)(F)F)cc(Cl)n2)cc1` [Compound W1] had a Kd of 0.1 to 1 µM. With `CC(C)(C)c1cc(NC(=O)Nc2ccc(NC(=O)c3cc([N+](=O)[O-])ccn3)cc2)no1` [Compound N7], the Kd is < 0.1 µM. Molecule `Cc1nccn1CCOc1ccc(NC(=O)Nc2cc(C(C)(C)C)on2)cc1` [Compound G51] yielded a Kd of 0.1 to 1 µM. Consider `CC(C)(C)c1cc(NC(=O)Nc2ccc(OCc3ccccc3C(F)(F)F)cc2)no1` [Compound G4], for which the Kd fell in the range of 0.1 to 1 µM. In turn, `CC(C)(C)c1cc(NC(=O)Nc2ccc(C(N)=O)cc2)no1` [Compound N86] showed a Kd of 0.1 to 1 µM. For `COC(=O)c1cccc(COc2ccc(NC(=O)Nc3cc(C(C)(C)C)on3)cc2)c1` [Compound G7], the Kd fell in the range of 0.1 to 1 µM. `CC(C)(C)c1cc(NC(=O)Nc2ccc(NC(=O)c3ccc4ncccc4c3)cc2)no1` [Compound N151] had a Kd of 0.1 to 1 µM. The figure for `CC(C)(C)c1cc(NC(=O)Nc2ccc(Cl)cc2)no1` [Compound A27] is 0.1 to 1 µM. As to `Cc1ccc(-n2nc(C(C)(C)C)cc2NC(=O)Nc2ccc(OCc3ccccc3)cc2)cc1` [Compound H5], the Kd is > 10 µM. `Cc1ncccc1C(=O)Nc1ccc(NC(=O)Nc2cc(C(C)(C)C)on2)cc1` [Compound N145]: the Kd was 0.1 to 1 µM.

Take `CC(C)(C)c1cc(NC(=O)Nc2ccc(Cl)cc2Cl)no1` [Compound A7]: the Kd was in the range of 1 to 10 µM. With `CC(C)(C)c1cc(NC(=O)Nc2ccc(OC/C=C/c3ccccc3Cl)cc2)no1` [Compound G26], the Kd was 0.1 to 1 µM. `CC(C)(C)c1cc(NC(=O)Nc2ccc(NC(=O)c3csc(-c4ccc(Cl)cc4)n3)cc2)no1` [Compound N124] had a Kd of 0.1 to 1 µM. As for `CC(C)(C)c1cc(NC(=O)Nc2ccc(NC(=O)c3cnc4cc(C(F)(F)F)ccc4c3O)cc2)no1` [Compound N146], the Kd fell in the range of 1 to 10 µM. As for `Cc1ccc(-c2cc(C(=O)Nc3ccc(NC(=O)Nc4cc(C(C)(C)C)on4)cc3)c(C)o2)cc1` [Compound N120], the figure is 1 to 10 µM.
